According to ChEMBL document CHEMBL1154828, “Dimeric guaianolides and sesquiterpenoids from Artemisia anomala” (J Nat Prod, 2010):
Active and inactive are the calls of the source. The calls are words filed in the database; no cut-off is given here.

Legend:
[1] = target: T1, Prostaglandin G/H synthase 2 (Homo sapiens) (UniProt P35354); assay: Inhibition of COX2 at 50 uM
T1 sequence (whole entry): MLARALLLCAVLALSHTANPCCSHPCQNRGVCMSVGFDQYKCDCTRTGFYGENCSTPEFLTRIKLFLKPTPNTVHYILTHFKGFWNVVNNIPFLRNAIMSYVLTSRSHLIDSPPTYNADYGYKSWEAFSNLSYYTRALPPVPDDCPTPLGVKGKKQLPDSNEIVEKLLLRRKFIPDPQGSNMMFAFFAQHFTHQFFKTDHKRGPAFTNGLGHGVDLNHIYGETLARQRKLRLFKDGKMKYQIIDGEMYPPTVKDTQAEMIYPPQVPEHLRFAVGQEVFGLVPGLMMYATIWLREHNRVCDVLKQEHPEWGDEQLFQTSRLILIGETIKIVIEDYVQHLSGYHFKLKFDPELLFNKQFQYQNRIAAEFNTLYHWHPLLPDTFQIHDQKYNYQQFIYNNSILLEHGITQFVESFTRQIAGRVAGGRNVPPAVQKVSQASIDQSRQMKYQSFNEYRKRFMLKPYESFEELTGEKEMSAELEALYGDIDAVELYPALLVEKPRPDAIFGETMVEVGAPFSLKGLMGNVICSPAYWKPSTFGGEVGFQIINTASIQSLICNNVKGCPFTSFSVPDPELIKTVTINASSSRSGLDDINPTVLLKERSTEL

BGC-823 = assay: Cytotoxicity activity against human BGC823 cells after 72 hrs by MTT assay; format: functional, cell-based; details: BGC-823, 72 h
HCT-8 = assay: Cytotoxicity activity against human HCT8 cells after 72 hrs by MTT assay; format: functional, cell-based; details: HCT-8, 72 h
A549 = assay: Cytotoxicity activity against human A549 cells after 72 hrs by MTT assay; format: functional, cell-based
A2780 = assay: Cytotoxicity activity against human A2780 cells after 72 hrs by MTT assay; format: functional, cell-based; details: A2780, 72 h
Bel-7402 = assay: Cytotoxicity activity against human Bel7402 cells after 72 hrs by MTT assay; format: functional, cell-based; details: Bel-7402, 72 h

| inhibition [1] [%] | SMILES | IC50 (BGC-823) [nM] | IC50 (HCT-8) [nM] | Activity (A549) | IC50 (A2780) [nM] | IC50 (Bel-7402) [nM] |
| --- | --- | --- | --- | --- | --- | --- |
| 98.2 | C=C(C(=O)O)C(CCC(C)=O)CC1=C(C)C(=O)CC1=O (stereo not drawn) | – | – | – | – | – |
| 98.4 | C=C1C(=O)O[C@H]2[C@H]1CC[C@](C)(O)[C@]13O[C@H]1[C@H](Cl)[C@](C)(O)[C@H]23 | – | – | – | – | – |
| 99.5 | C=C1C(=O)O[C@@H]2[C@@H]3C4(C=C[C@@]3(C)C3(C4)C(=O)O[C@@H]4[C@H]5C(C)=CC(=O)C5=C(C)C[C@H](O)[C@H]43)[C@@](C)(OC(C)=O)CC[C@@H]12 (stereo partly drawn) [ARTANOMALIDE D] | 8500 | 1900 | inactive | 1800 | 3000 |
